{"source": "patent US5843916A", "about": "“Cyclic amp analogues, individually and in pairs, to inhibit neoplastic cell growth” (priority 1994, dated 1998)", "test_system": "MCF-7ras breast cancer cell line", "assay": "Synergistic growth inhibition by analogue combinations (Table 2)", "assay_type": "cell-based, human", "settings": "footnote of Table 2", "procedure": "All breast cancer cell lines were grown in IMEM supplemented with 10% fetal bovine serum, HEPES 20 mM, penicillin-streptomycin, and extra glutamine. Colon carcinoma cell lines were grown in EMEM supplemented with 10% FBS, EMEM, NEAA, HEPES 20 mM, extra glutamine, and penicillin-streptomycin. The cells were grown at 37° C. in humidified incubators in an atmosphere of 5% CO2.\nFor cell growth experiments, 2-3×10^5 cells/60 mm dish were seeded, and 24 hours later (Day 0), the medium was removed, and fresh medium and the additives were added then and every 48 hours thereafter. The compounds of the present invention were added using 100X concentrated stock solutions. At desired times, cell counts in duplicate were performed on a Coulter counter after harvesting the cells with gentle trypsinization.\nSynergism quotient was defined as the net growth inhibitory effect of the analogue combination divided by the sum of the net analogue effects on growth inhibition. A quotient of >1 indicates a synergistic effect, while a quotient of <1 indicates an antagonistic effect.\nSynergism of growth inhibition was determined by\ntreatment of cells with C-6 analogues and C-8 analogues alone\nand in combination at Day 0 and Day 2 and counting the cell\n^a Data are expressed as percentage growth inhibition in reference to\nthe growth of untreated control cells and represent average values and\nranges (in parentheses) of duplicate cell counts on three or more separat\nexperiments. The values for percentage growth inhibition of each analogue\n^b The synergism quotient was defined as previously described.", "data": [{"smiles": "Nc1ncnc2c1nc(Cl)n2[C@@H]1O[C@@H]2COP(=O)(O)O[C@H]2[C@H]1O", "note": "[8-Cl-cAMP, 8-chloro-adenosine 3': 5'-monophosphate]", "values": [{"measurement": "percentage growth inhibition of each analogue when added alone", "value": 20, "unit": "%"}]}]}
